Columns and labels:
[1] = target: T1, ORL-1 receptor (Homo sapiens, UniProt P41146); test: ORL1 receptor binding assay ([3H]nociceptin); conditions: for Ki: calculated from IC50 and Kd of [3H]nociceptin; for IC50: membrane of human ORL-1 expression cells, [3H]nociceptin 0.5 nM
T1 construct: expressed in transfected cells
Description: ORL1 Receptor Binding Assay
A cell membrane suspension obtained from human ORL-1 expression cells was adjusted with Tris buffer [50 mM Tris, 2 mM EDTA, 0.1 mM (p-Amidinophenyl)methanesulfonyl Fluoride Hydrochloride (p-APMSF), 2 mg/ml BSA] to membrane protein amount of about 25 μg/ml (2.5 μg/well). This was mixed with [^3H]nociceptin (diluted with Tris buffer to a final concentration of 0.5 nM) and test compound (diluted with Tris buffer to a final concentration of 10 nM-10 μM), and the mixture was incubated at room temperature for 60 min. The membrane was recovered on a G/F-B filter (Packard, Unifilter 96GF/B) using a cell harvester and the reaction was stopped. After washing 3 times, the filter was dried at 42° C. for 1 hr. A scintillation solution (Packard, microscint-20) was added and the radioactivity (Packard, Top count A9912V) was assayed.
(§1) The nonspecific binding was the binding in the presence of 1 μM nociceptin and the difference between the total binding and nonspecific binding was taken as the specific binding. IC50 was calculated from inhibition of specific binding at each concentration of the compound, and Ki value of the test compound was calculated from this value and Kd value of [^3H]nociceptin.

[2] = target: T2, μ receptor (Rattus norvegicus, UniProt P33535); test: μ receptor binding assay ([3H]DAMGO); conditions: for Ki: calculated from IC50 and Kd of [3H]DAMGO; for IC50: rat cerebrum membrane, [3H]DAMGO 1 nM
T2 construct: Rat cerebrum membrane standard sample; from tissue; host or cells: rat cerebrum membranes
Description: Rat cerebrum membrane standard sample (final concentration 0.755 mg·protein/ml), [^3H]DAMGO (Try-D-Ala-Gly-NMe-Phe-Gly-ol) [diluted with Tris buffer (50 mM Tris-HCl, 0.1 mM p-APMSF, 2 mg/ml BSA (pH=7.4)) to a final concentration of 1 nM] and test compound (diluted with Tris buffer to a final concentration of 10 nM-10 μM) were mixed, and the mixture was incubated at room temperature for 90 min. The membrane was recovered on a G/F-B filter (same as above) using a cell harvester and the reaction was stopped. After washing 3 times, the filter was dried at 42° C. for 1 hr. A scintillation solution (same as above) was added and the radioactivity (same as above) was assayed.
as §1, with “10” for “1”, “naloxone” for “nociceptin”, “[^3H]DAMGO.” for “[^3H]nociceptin.”

[3] = test system: allodynia model; test: Allodynia test (intrathecal nociceptin, tactile stimulation); assay type: in vivo, Mice; conditions: Mus musculus; mice, oral, 60 min before nociceptin 50 pg i.t.; score at 20 min; read-out: Allodynia M.E.D. (minimum effective dose)
Description: Mice (Crj, ICR, 4-week-old, male) were intrathecally administered with nociceptin (50 pg/5 μl) without anesthesia. For 20 min after administration and at 5 min intervals, an area from lateral region to tail of the mice was rubbed with a brush and the response of the mice was observed. The evaluation followed the criteria of 0; no change, 1; run or cry upon tactile stimulation, and 2; cry loud or dash away upon tactile stimulation. The test compound was suspended in a 0.5% MC solution and orally administered 60 min before nociceptin administration. The significant difference of the score of each administration group at 20 min after nociceptin administration from the group administered with solvent was analyzed with Mann-Whitny U-test.

[4] = test system: Mice; test: Hot-plate test; assay type: in vivo; conditions: Mus musculus, 1 h, oral, 60 min after administration, 55.5°C, read-out: Hot-plate M.E.D. (minimum effective dose)
Description: Mice (Crj, ICR, 4-week-old, male) were placed on a hot-plate (temperature 55.5±0.5° C.) and the time until the mice jumped and tried to run away was recorded. The mice were grouped according to the time and body weight so that the groups were evenly membered. The test compound was suspended in a 0.5% methylcellulose (MC) solution and orally administered to mice. After 60 min, the mice were again placed on a hot-plate and the time until they licked the hindlimb or jumped and tried to run away was recorded. The significant difference from the group administered with solvent was analyzed with ANOVA followed by Dunnett two-tailed test.

T1 sequence (P41146 whole entry): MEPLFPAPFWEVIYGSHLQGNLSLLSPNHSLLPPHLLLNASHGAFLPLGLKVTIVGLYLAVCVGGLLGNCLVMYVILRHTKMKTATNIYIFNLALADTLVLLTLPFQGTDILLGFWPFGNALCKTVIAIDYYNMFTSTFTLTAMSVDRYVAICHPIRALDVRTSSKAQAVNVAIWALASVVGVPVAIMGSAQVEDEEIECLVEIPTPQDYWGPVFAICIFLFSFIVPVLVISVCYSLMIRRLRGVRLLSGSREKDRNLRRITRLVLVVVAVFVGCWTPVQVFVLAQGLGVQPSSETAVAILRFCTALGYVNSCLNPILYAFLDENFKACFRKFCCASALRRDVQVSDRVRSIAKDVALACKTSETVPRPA
T2 sequence (P33535 whole entry): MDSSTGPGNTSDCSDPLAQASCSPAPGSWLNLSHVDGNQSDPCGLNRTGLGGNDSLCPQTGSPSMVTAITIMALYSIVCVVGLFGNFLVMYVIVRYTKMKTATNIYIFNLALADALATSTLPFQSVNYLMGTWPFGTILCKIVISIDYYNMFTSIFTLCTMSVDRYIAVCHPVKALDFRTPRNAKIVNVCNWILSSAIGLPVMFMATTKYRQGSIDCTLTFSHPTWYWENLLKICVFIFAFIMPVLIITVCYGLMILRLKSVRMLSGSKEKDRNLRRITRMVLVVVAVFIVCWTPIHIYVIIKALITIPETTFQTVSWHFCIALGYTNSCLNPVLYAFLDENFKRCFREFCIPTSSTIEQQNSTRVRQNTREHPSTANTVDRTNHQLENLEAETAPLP

SMILES | Ki [1] | IC50 [1] | Ki [2] | IC50 [2] | melting point | minimal effective dose [3] | minimal effective dose [4]
COc1ccc(CCc2ccccc2C(=O)Nc2ccc3nc(C)cc(N)c3c2)cc1.Cl [Example 84] | 0.129 µM | 2.52 µM | 0.419 µM | 1.11 µM | 285 °C | < 3 mg/kg | > 10 mg/kg
Cc1cc(N)c2cc(NC(=O)c3ccccc3COc3ccc(C#N)cc3)ccc2n1.Cl [Example 16, N-(4-amino-2-methyl-6-quinolyl)-2-[(4-cyanophenoxy)methyl]benzamide hydrochloride] | 0.006 µM | 0.11 µM | 0.259 µM | 0.69 µM | 286 °C | 0.1 mg/kg | 3 mg/kg
Cc1cc(N)c2cc(NC(=O)c3ccccc3COc3ccc(C(C)(C)C)cc3)ccc2n1.Cl [Example 29, N-(4-amino-2-methyl-6-quinolyl)-2-[(4-tert-butylphenoxy)methyl]benzamide hydrochloride] | 0.009 µM | 0.16 µM | 0.414 µM | 1.05 µM | 268 °C | > 0.3 mg/kg | 3 mg/kg
CC(=O)c1ccc(OCc2ccccc2C(=O)Nc2ccc3nc(C)cc(N)c3c2)cc1.Cl [Example 12, N-(4-amino-2-methyl-6-quinolyl)-2-[(4-acetylphenoxy)methyl]benzamide hydrochloride] | 0.008 µM | 0.16 µM | 0.254 µM | 0.67 µM | 270 °C | 0.3 mg/kg | 3 mg/kg

Second part, led by results:

Ki [1] | IC50 [1] | Ki [2] | IC50 [2] | melting point | SMILES | minimal effective dose [3] | minimal effective dose [4]
0.006 µM | 0.13 µM | 0.548 µM | 1.46 µM | 245.9 °C | CCc1ccc(OCc2ccccc2C(=O)Nc2ccc3nc(C)cc(N)c3c2)c(Cl)c1.Cl [Example 89, N-(4-amino-2-methyl-6-quinolyl)-2-[(2-chloro-4-ethylphenoxy)methyl]benzamide hydrochloride] | 0.3 mg/kg | 1 mg/kg
0.004 µM | 0.08 µM | 0.479 µM | 1.22 µM | 223 °C | Cc1cc(N)c2cc(NC(=O)c3ccccc3COc3ccc(Cl)c(Cl)c3)ccc2n1.Cl [Example 26, N-(4-amino-2-methyl-6-quinolyl)-2-[(3,4-dichlorophenoxy)methyl]benzamide hydrochloride] | 0.3 mg/kg | 1 mg/kg
